{"source": "patent US20080268069A1", "about": "“Mixture having effect of improving insulin resistance, effect of suppressing body weight gain, and effect of preventing and improving fatty liver” (Ryusendo Co., Ltd., priority 2007, published 2008)", "type_in_all_cases": "in vivo", "key": {"[1]": {"system": "Zucker fa/fa rat", "test": "Glucose tolerance test", "description": "(§1) The Zucker fa/fa rat is polyphagous and used as an obesity model and also as a hyperinsulinemia or insulin resistance model.\n(§2) Significant tests were carried out using the t test. Two-tailed tests were used for the V group, with significance expressed at p<0.05 (*) and p<0.01 (**).\nGlucose tolerance tests were carried out in each group of rats at the 2nd week (9-week old) and 4th (11-week old) week after the start of experiment. After 16 hours of fasting, each group of rats was forcedly allowed to ingest 2 g/kg body weight of D-glucose, followed by measuring blood glucose level with time."}, "[2]": {"system": "Zucker fa/fa rat", "test": "Serum parameters and blood glucose level at autopsy", "details": "compared to V group", "description": "as §1\n(§3) Dietary intake, body weight gain, liver weight, kidney weight, peritesticular fat weight, glucose tolerance test, blood glucose level, serum insulin, total serum cholesterol, serum triglyceride, serum free fatty acid, and serum leptin.\nas §2\nAt autopsy, serum insulin and blood glucose level were measured."}, "[3]": {"system": "Zucker fa/fa rat", "test": "28-day feeding study: dietary intake, body weight gain, organ weights", "details": "compared to V group; for suppression of body weight gain: feeding period of 28 days", "description": "as §1\nEight-week old Zucker fa/fa (Obesity model)\nVehicle (V) fa/fa Basic diet\nOnion (O) fa/fa Basic diet+5% Onion\nas §3, §2"}}, "note": "“Also recorded” adds a separate entry of the source.", "data": [{"substance": "trivalent chromium-nicotinic acid complex [Cr]", "values": [{"measurement": "blood glucose level in glucose tolerance test", "setting": "[1]; 2nd and 4th week, after 2 g/kg D-glucose, no time point stated, compared to V group", "result": "no significant difference"}, {"measurement": "effect of improving insulin resistance", "setting": "[1]; conclusion from glucose tolerance test and serum insulin, 2 to 4 weeks", "result": "neither the trivalent chromium-nicotinic acid complex alone nor the onion extract alone had the effect"}, {"measurement": "blood glucose level", "setting": "[2]; at autopsy", "result": "no significant difference"}, {"measurement": "serum insulin content", "setting": "[2]; at autopsy", "result": "no significant difference"}, {"measurement": "serum free fatty acid (FFA)", "setting": "[2]", "result": "No significant difference"}, {"measurement": "serum leptin", "setting": "[2]", "result": "No significant difference"}, {"measurement": "serum triglyceride (TG)", "setting": "[2]", "result": "no significant difference; also recorded: tendency of reduction"}, {"measurement": "total serum cholesterol (TC)", "setting": "[2]", "result": "No significant difference"}, {"measurement": "weight of kidney", "setting": "[3]; 28 days feeding", "result": "no significant difference"}, {"measurement": "weight of peritesticular fat", "setting": "[3]; 28 days feeding", "result": "no significant difference"}, {"measurement": "suppression of body weight gain", "setting": "[3]", "result": "no significant difference"}, {"measurement": "suppression of body weight gain", "setting": "[3]; listed as trivalent chromium-nicotinic acid complex", "result": "neither the trivalent chromium-nicotinic acid complex alone nor the onion extract alone had the effect"}]}]}
